Read-outs that look alike come from different tables or passages of the source.
Columns and labels:
[1] = target: T1, CHK1 (kinase domain) (Homo sapiens, UniProt O14757); assay: CHK1 Ki determination, spectrophotometric coupled (pyruvate kinase/lactate dehydrogenase) assay; format: biochemical; conditions: CHK-1 kinase domain; for Ki: 150 uM ATP, 125 uM Syntide 2; for percent inhibition (where no Ki data is available): inhibitor concentration not given
T1 construct: a solution containing 1 nM of CHK1 (kinase domain)
T1 sequence (O14757 9-265 limits assumed): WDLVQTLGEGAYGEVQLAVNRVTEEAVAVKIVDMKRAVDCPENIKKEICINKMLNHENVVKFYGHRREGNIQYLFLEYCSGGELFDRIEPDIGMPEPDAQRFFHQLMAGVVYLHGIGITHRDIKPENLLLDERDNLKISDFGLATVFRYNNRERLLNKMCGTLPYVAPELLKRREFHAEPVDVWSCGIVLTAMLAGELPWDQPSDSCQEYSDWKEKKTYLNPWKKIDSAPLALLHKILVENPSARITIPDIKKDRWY
Procedure, shortened: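 The CHK1 kinase domain was pre-incubated with compound for 15 min, and the reaction was started with 125 uM Syntide 2 and 150 uM ATP. ADP formation was coupled through pyruvate kinase/lactate dehydrogenase to NADH oxidation, read as the A340 decrease. Kiapp was fitted with a tight-binding equation that accounts for enzyme concentration and ATP Km; some entries are % inhibition.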

[2] = test system: HeLa cells; assay: Histone H3 (Ser10) phosphorylation ELISA, abrogation of camptothecin-induced G2 arrest (CHK-1 cellular assay); format: cell-based; conditions: HeLa cells, camptothecin 8 hrs, then compound with nocodozole 16 hours, read-out: EC50
Procedure, shortened: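 HeLa cells, or MiaPaCa-2 where marked, received camptothecin for 8 h, then compound with nocodazole for 16 h. Ser10-phosphorylated histone H3 in lysates was measured by ELISA with a biotinylated antibody, streptavidin-HRP and TMB. EC50 came from four-parameter sigmoid fits.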

| SMILES | Ki [1] [nM] | EC50 ([2]; Homo sapiens, HeLa) [nM] | percent inhibition (where no Ki data is available) [1] [%^] | EC50 [2] [nM] |
| --- | --- | --- | --- | --- |
| Cc1cn2c(-c3cncc(N[C@@H]4CCCN[C@@H]4C)n3)cnc2s1 [Example 96, 6-(2-methylimidazo[2,1-b][1,3]thiazol-5-yl)-N-[(2R,3R)-2-methylpiperidin-3-yl]pyrazin-2-amine] | 2.7 | 24.3 | – | – |
| CO[C@@H]1CNC[C@@H]1Nc1cncc(-c2cnc3ccccn23)n1 [Example 190, 6-(imidazo[1,2-a]pyridin-3-yl)-N-[(3S,4R)-4-methoxypyrrolidin-3-yl]pyrazin-2-amine] | 156 | 1320 | – | – |
| CCOc1ccc2ncn(-c3cncc(N[C@@H]4CCNC4)n3)c2c1 [Example 219, 6-(6-ethoxy-1H-benzimidazol-1-yl)-N-[(3R)-pyrrolidin-3-yl]pyrazin-2-amine] | – | 979 | 48.4 | – |
| Cc1cn2c(-c3cncc(N[C@@H]4CCCNC4)n3)cnc2s1 [Example 59, 6-(2-Methylimidazo[2,1-b][1,3]thiazol-5-yl)-N-[(3R)-piperidin-3-yl]pyrazin-2-amine] | 3 | 9.09 | – | – |
| COc1ccc2c(c1)ncn2-c1cncc(N[C@@H]2CCCNC2)n1 [Example 224, 6-(5-methoxy-1H-benzimidazol-1-yl)-N-[(3R)-piperidin-3-yl]pyrazin-2-amine] | 2.39 | 30.3 | – | – |
| C[C@H]1CNC[C@H]1Nc1cncc(-c2cnc3ccc(F)cn23)n1 [Example 141, 6-(6-fluoroimidazo[1,2-a]pyridin-3-yl)-N-[(3S,4S)-4-methylpyrrolidin-3-yl]pyrazin-2-amine] | 10 | 77.8 | – | – |
| Cc1ncc(N[C@@H]2CCNC2)nc1-c1cnc2ccccn12 [Example 296, 6-(imidazo[1,2-a]pyridin-3-yl)-5-methyl-N-[(3R)-pyrrolidin-3-yl]pyrazin-2-amine] | 334 | 4080 | – | – |
| CCO[C@H]1CCNC[C@@H]1Nc1cncc(-c2cnc3ccccn23)n1 [Example 35, N-[(3S,4S)-4-ethoxypiperidin-3-yl]-6-(imidazo[1,2-a]pyridin-3-yl)pyrazin-2-amine] | 3.88 | 40.9 | – | – |
| CC(C)c1cn2c(-c3cncc(N[C@@H]4CCCN[C@@H]4C)n3)cnc2s1 [Example 165, N-[(2R,3R)-2-methylpiperidin-3-yl]-6-[2-(propan-2-yl)imidazo[2,1-b][1,3]thiazol-5-yl]pyrazin-2-amine] | 1.09 | – | – | 123 |
| Fc1ccc2ncc(-c3cncc(N[C@@H]4CCNC4)n3)n2c1 [Example 91, 6-(6-fluoroimidazo[1,2-a]pyridin-3-yl)-N-[(3R)-pyrrolidin-3-yl]pyrazin-2-amine] | 18.7 | 497 | – | – |
| CCc1cn2c(-c3cncc(N[C@@H]4CC[C@H](C)NC4)n3)cnc2s1 [Example 103, 6-(2-ethylimidazo[2,1-b][1,3]thiazol-5-yl)-N-[(3R,6S)-6-methylpiperidin-3-yl]pyrazin-2-amine] | 26.5 | 69.6 | – | – |
| CO[C@H]1CNC[C@H](Nc2cncc(-c3cnc4ccccn34)n2)C1 [Example 156, 6-(imidazo[1,2-a]pyridin-3-yl)-N-[(3R,5R)-5-methoxypiperidin-3-yl]pyrazin-2-amine] | 28.4 | 314 | – | – |
| F[C@H]1CCNC[C@@H]1Nc1cncc(-c2cnc3ccccn23)n1 [Example 28, N-[(3S,4S)-4-fluoropiperidin-3-yl]-6-imidazo[1,2-a]pyridin-3-ylpyrazin-2-amine] | 4.77 | 205 | – | – |
| C[C@H]1NCCC[C@H]1Nc1cncc(-c2cnc3cc(Cl)ccn23)n1 [Example 102, 6-(7-chloroimidazo[1,2-a]pyridin-3-yl)-N-[(2R,3R)-2-methylpiperidin-3-yl]pyrazin-2-amine] | 3.1 | ≥ 10000 | – | – |
| C[C@H]1NCCC[C@@H]1Nc1cncc(-c2cnc3cnccn23)n1 [Example 171, 6-(imidazo[1,2-a]pyrazin-3-yl)-N-[(2R,3S)-2-methylpiperidin-3-yl]pyrazin-2-amine] | – | ≥ 10000 | 21.7 | – |
| C[C@H]1NCCC[C@H]1Nc1cncc(-c2cnc3cc(C#N)ccn23)n1 [Example 262, 3-(6-{[(2R,3R)-2-methylpiperidin-3-yl]amino}pyrazin-2-yl)imidazo[1,2-a]pyridine-7-carbonitrile] | 56.4 | 303 | – | – |
| C[C@@H]1NCCC[C@@H]1Nc1cncc(-c2cnc3ccccn23)n1 [Example 139, 6-imidazo[1,2-a]pyridin-3-yl-N-[(2S,3S)-2-methylpiperidin-3-yl]pyrazin-2-amine] | 9.7 | ≥ 10000 | – | – |

| SMILES | Ki [1] [nM] | EC50 ([2]; Homo sapiens, HeLa) [nM] | percent inhibition (where no Ki data is available) [1] [%^] | EC50 [2] [nM] |
| --- | --- | --- | --- | --- |
| F[C@@H]1CCNC[C@@H]1Nc1cncc(-c2cnc3ccccn23)n1 [Example 27, N-[(3S,4R)-4-fluoropiperidin-3-yl]-6-(imidazo[1,2-a]pyridin-3-yl)pyrazin-2-amine] | 53.9 | 5580 | – | – |
| CC(C)Oc1ccc2c(c1)ncn2-c1cncc(N[C@@H]2CCCNC2)n1 [Example 215, N-[(3R)-piperidin-3-yl]-6-[5-(propan-2-yloxy)-1H-benzimidazol-1-yl]pyrazin-2-amine] | 6.78 | 35.8 | – | – |
| C[C@@H]1C[C@@H](Nc2cncc(-c3cnn4ccccc34)n2)CN1 [Example 145, N-[(3R,5R)-5-methylpyrrolidin-3-yl]-6-pyrazolo[1,5-a]pyridin-3-ylpyrazin-2-amine] | 8.1 | 389 | – | – |
| CCc1cn2c(-c3cncc(N[C@@H]4CCCN[C@H]4C)n3)cnc2s1 [Example 170, 6-(2-ethylimidazo[2,1-b][1,3]thiazol-5-yl)-N-[(2S,3R)-2-methylpiperidin-3-yl]pyrazin-2-amine] | 11.1 | – | – | 414 |
| CC(C)c1cn2c(-c3cncc(N[C@H]4CCCN[C@@H]4C)n3)cnc2s1 [Example 173, N-[(2R,3S)-2-methylpiperidin-3-yl]-6-[2-(propan-2-yl)imidazo[2,1-b][1,3]thiazol-5-yl]pyrazin-2-amine] | 23.7 | ≥ 10000 | – | – |
| Cc1cn2c(-c3cncc(N[C@@H]4CCCN[C@H]4C)n3)cnc2s1 [Example 97, 6-(2-methylimidazo[2,1-b][1,3]thiazol-5-yl)-N-[(2S,3R)-2-methylpiperidin-3-yl]pyrazin-2-amine] | 8.62 | – | – | 151 |
| FC[C@@H]1C[C@@H](Nc2cncc(-c3cnc4cc(C(F)(F)F)ccn34)n2)CN1 [Example 78, N-[(3R,5S)-5-(fluoromethyl)pyrrolidin-3-yl]-6-[7-(trifluoromethyl)imidazo[1,2-a]pyridin-3-yl]pyrazin-2-amine] | 37.1 | 3560 | – | – |
| Cc1cn2c(-c3cncc(N[C@@H]4CC[C@H](C)NC4)n3)cnc2s1 (relative stereo) [Example 62, Cis 6-(2-Methylimidazo[2,1-b][1,3]thiazol-5-yl)-N-(6-methylpiperidin-3-yl)pyrazin-2-amine] | 73.5 | 694 | – | – |
| F[C@H]1CNC[C@@H]1Nc1cncc(-c2cnc3cc(Cl)ccn23)n1 [Example 65, 6-(7-chloroimidazo[1,2-a]pyridin-3-yl)-N-[(3S,4S)-4-fluoropyrrolidin-3-yl]pyrazin-2-amine] | 33 | 501 | – | – |
| C[C@@H]1CNC[C@@H]1Nc1cncc(-c2cnc3cc(-c4cnn(C)c4)ccn23)n1 [Example 209, 6-[7-(1-methyl-1H-pyrazol-4-yl)imidazo[1,2-a]pyridin-3-yl]-N-[(3R,4R)-4-methylpyrrolidin-3-yl]pyrazin-2-amine] | 1.3 | 123 | – | – |
| COc1ccc2ncn(-c3cncc(N[C@@H]4CCNC4)n3)c2c1 [Example 216, 6-(6-methoxy-1H-benzimidazol-1-yl)-N-[(3R)-pyrrolidin-3-yl]pyrazin-2-amine] | 15.5 | 35.8 | – | – |
| c1ccn2c(-c3cncc(NC4CC5CNC4C5)n3)cnc2c1 (stereo not drawn) [Example 159, N-[6-(imidazo[1,2-a]pyridin-3-yl)pyrazin-2-yl]-2-azabicyclo[2.2.1]heptan-6-amine] | 20.8 | 166 | – | – |
| CCc1cn2c(-c3cncc(N[C@@H]4CC[C@@H](C)NC4)n3)cnc2s1 [Example 106, 6-(2-ethylimidazo[2,1-b][1,3]thiazol-5-yl)-N-[(3R,6R)-6-methylpiperidin-3-yl]pyrazin-2-amine] | 21.8 | 271 | – | – |
| Cc1cn2c(-c3cncc(N[C@H]4CCCN[C@H]4C)n3)cnc2s1 [Example 175, 6-(2-methylimidazo[2,1-b][1,3]thiazol-5-yl)-N-[(2S,3S)-2-methylpiperidin-3-yl]pyrazin-2-amine] | 13.7 | 197 | – | – |
| C[C@@H]1CNC[C@@H]1Nc1cncc(-n2cnc3cc(-c4cnn(C)c4)ccc32)n1 [Example 34, 6-[5-(1-methyl-1H-pyrazol-4-yl)-1H-benzimidazol-1-yl]-N-[(3R,4R)-4-methylpyrrolidin-3-yl]pyrazin-2-amine] | 3.38 | 29 | – | – |
| C[C@H]1CC[C@@H](Nc2cncc(-c3cnc4ccccn34)n2)CN1 [Example 30, 6-imidazo[1,2-a]pyridin-3-yl-N-[(3R,6S)-6-methylpiperidin-3-yl]pyrazin-2-amine] | 147 | 634 | – | – |
